# From ChEMBL document CHEMBL1201862, “PubChem BioAssay data set” (2004)
#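 Protocol summary: plate cells (96-well), add compound at 5 concentrations, incubate 48 h, interpolate endpoints linearly. GI50 marks 50% less growth.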 Calls of active or inactive are those of the source. Rule as the data show it: active = GI50 up to about 1.1 µM and inactive = higher.
# What was measured:
# Experiment in all cases: NCI anticancer screen, dose series, 48 h
# NCI-H23 = test system: NCI-H23
# SK-MEL-28 = test system: SK-MEL-28
# COLO 205 = test system: COLO 205
# NCI-H522 = test system: NCI-H522
# UO-31 = test system: UO-31
# SF-268 = test system: SF-268
# TK-10 = test system: TK-10
# MDA-N = test system: MDA-N
# SK-OV-3 = test system: SK-OV-3
# A549 = test system: A549
# KM12 = test system: KM12
# OVCAR-5 = test system: OVCAR-5
# HT-29 = test system: HT-29
# SR = test system: SR
# K562 = test system: K562
# HL-60 = test system: HL-60
# OVCAR-8 = test system: OVCAR-8
# LOX IMVI = test system: LOX IMVI
# HCT-116 = test system: HCT-116
# MDA-MB-435 = test system: MDA-MB-435
# MOLT-4 = test system: MOLT-4
# PC-3 = test system: PC-3
# OVCAR-4 = test system: OVCAR-4
# HCC 2998 = test system: HCC 2998
# SK-MEL-2 = test system: SK-MEL-2
# U-251 = test system: U-251
# SF-295 = test system: SF-295
# ACHN = test system: ACHN
# UACC-62 = test system: UACC-62
# T47D = test system: T47D
# DU-145 = test system: DU-145
# SNB-19 = test system: SNB-19
# SW-620 = test system: SW-620
# OVCAR-3 = test system: OVCAR-3
# EKVX = test system: EKVX
# SN12C = test system: SN12C
# IGROV-1 = test system: IGROV-1
# HCT-15 = test system: HCT-15
# HOP-92 = test system: HOP-92
# MDA-MB-231 = test system: MDA-MB-231
# NCI-H460 = test system: NCI-H460
# UACC-257 = test system: UACC-257
# CAKI-1 = test system: CAKI-1
# NCI/ADR-RES = test system: NCI/ADR-RES
# Hs-578T = test system: Hs-578T
# NCI-H226 = test system: NCI-H226
# A498 = test system: A498
# MCF7 = test system: MCF7
# Malme-3M = test system: Malme-3M
# SF-539 = test system: SF-539
# SK-MEL-5 = test system: SK-MEL-5
# RPMI-8226 = test system: RPMI-8226
# BT-549 = test system: BT-549
# CCRF-CEM = test system: CCRF-CEM
# 786-0 = test system: 786-0
# M14 = test system: M14
# HOP-62 = test system: HOP-62
# SNB-75 = test system: SNB-75
smiles,measurement,setting,value
Clc1cc(Cl)nc(Nc2ccc3c(c2)CCC3)n1,GI50,NCI-H23,39.6 µM (inactive)
same,GI50,SK-MEL-28,37.7 µM (inactive)
same,GI50,COLO 205,24 µM (inactive)
same,GI50,NCI-H522,2.54 µM (inactive)
same,GI50,UO-31,41.4 µM (inactive)
same,GI50,SF-268,44.8 µM (inactive)
same,GI50,TK-10,18.1 µM (inactive)
same,GI50,MDA-N,40.1 µM (inactive)
same,GI50,SK-OV-3,> 100 µM (inactive)
same,GI50,A549,32.6 µM (inactive)
same,GI50,KM12,21.4 µM (inactive)
same,GI50,OVCAR-5,77.8 µM (inactive)
same,GI50,HT-29,22 µM (inactive)
same,GI50,SR,30.3 µM (inactive)
same,GI50,K562,20.6 µM (inactive)
same,GI50,HL-60,36.7 µM (inactive)
same,GI50,OVCAR-8,72.3 µM (inactive)
same,GI50,LOX IMVI,32.1 µM (inactive)
same,GI50,HCT-116,28.6 µM (inactive)
same,GI50,MDA-MB-435,58.5 µM (inactive)
same,GI50,MOLT-4,13.8 µM (inactive)
same,GI50,PC-3,61.9 µM (inactive)
same,GI50,OVCAR-4,61.2 µM (inactive)
same,GI50,HCC 2998,16.4 µM (inactive)
same,GI50,SK-MEL-2,45 µM (inactive)
same,GI50,U-251,62.5 µM (inactive)
same,GI50,SF-295,48.5 µM (inactive)
same,GI50,ACHN,35.1 µM (inactive)
same,GI50,UACC-62,46.1 µM (inactive)
same,GI50,T47D,69.3 µM (inactive)
same,GI50,DU-145,61.2 µM (inactive)
same,GI50,SNB-19,89.5 µM (inactive)
same,GI50,SW-620,46.6 µM (inactive)
same,GI50,OVCAR-3,32 µM (inactive)
same,GI50,EKVX,20 µM (inactive)
same,GI50,SN12C,45.4 µM (inactive)
same,GI50,IGROV-1,16 µM (inactive)
same,GI50,HCT-15,33.7 µM
same,GI50,HOP-92,32.8 µM (inactive)
same,GI50,MDA-MB-231,51.3 µM (inactive)
same,GI50,NCI-H460,30.4 µM (inactive)
same,GI50,UACC-257,42 µM (inactive)
same,GI50,CAKI-1,28.2 µM (inactive)
same,GI50,NCI/ADR-RES,48 µM (inactive)
same,GI50,Hs-578T,28.4 µM (inactive)
same,GI50,NCI-H226,45 µM (inactive)
same,GI50,A498,31.3 µM (inactive)
same,GI50,MCF7,20.5 µM (inactive)
same,GI50,Malme-3M,28.6 µM (inactive)
same,GI50,SF-539,> 100 µM (inactive)
same,GI50,SK-MEL-5,23.8 µM (inactive)
same,GI50,RPMI-8226,16.5 µM (inactive)
same,GI50,BT-549,48.6 µM (inactive)
same,GI50,CCRF-CEM,30.3 µM (inactive)
same,GI50,786-0,39.1 µM (inactive)
same,GI50,M14,42.9 µM (inactive)
COc1cccc(CCn2c(N)c(-c3cc(Cl)cc(Cl)c3)c3ccc([N+](=O)[O-])cc3c2=O)c1,GI50,NCI-H23,2.35 µM (inactive)
same,GI50,SK-MEL-28,4.84 µM (inactive)
same,GI50,COLO 205,2.03 µM (inactive)
same,GI50,NCI-H522,2.92 µM (inactive)
same,GI50,UO-31,2.68 µM (inactive)
same,GI50,SF-268,5.86 µM (inactive)
same,GI50,TK-10,4.28 µM (inactive)
same,GI50,MDA-N,4.53 µM (inactive)
same,GI50,SK-OV-3,8.89 µM (inactive)
same,GI50,A549,4.76 µM (inactive)
same,GI50,KM12,3.47 µM (inactive)
same,GI50,OVCAR-5,18.1 µM (inactive)
same,GI50,HT-29,5.52 µM (inactive)
same,GI50,SR,0.897 µM (active)
same,GI50,K562,1.75 µM (inactive)
same,GI50,HL-60,0.811 µM (active)
same,GI50,HOP-62,5.21 µM (inactive)
same,GI50,OVCAR-8,3.81 µM (inactive)
same,GI50,LOX IMVI,3.61 µM (inactive)
same,GI50,HCT-116,2.84 µM (inactive)
same,GI50,MDA-MB-435,3.57 µM (inactive)
same,GI50,MOLT-4,1.88 µM (inactive)
same,GI50,PC-3,3.1 µM (inactive)
same,GI50,OVCAR-4,7.55 µM (inactive)
same,GI50,HCC 2998,3.51 µM (inactive)
same,GI50,SK-MEL-2,3.9 µM (inactive)
same,GI50,U-251,3.63 µM (inactive)
same,GI50,SF-295,3.73 µM (inactive)
same,GI50,ACHN,3.26 µM (inactive)
same,GI50,UACC-62,3.33 µM (inactive)
same,GI50,T47D,2.78 µM (inactive)
same,GI50,DU-145,2.7 µM (inactive)
same,GI50,SNB-75,4.39 µM (inactive)
same,GI50,SNB-19,3.21 µM (inactive)
same,GI50,SW-620,4.04 µM (inactive)
same,GI50,OVCAR-3,3.13 µM (inactive)
same,GI50,EKVX,4.69 µM (inactive)
same,GI50,SN12C,5 µM (inactive)
same,GI50,IGROV-1,3.33 µM (inactive)
same,GI50,HCT-15,3.19 µM
same,GI50,HOP-92,2.85 µM (inactive)
same,GI50,MDA-MB-231,4.68 µM (inactive)
same,GI50,NCI-H460,3.04 µM (inactive)
same,GI50,UACC-257,3.33 µM (inactive)
same,GI50,CAKI-1,3.5 µM (inactive)
same,GI50,NCI/ADR-RES,3.27 µM (inactive)
same,GI50,Hs-578T,3.19 µM (inactive)
same,GI50,NCI-H226,3.67 µM (inactive)
same,GI50,A498,3.56 µM (inactive)
same,GI50,MCF7,4.62 µM (inactive)
same,GI50,Malme-3M,2.83 µM (inactive)
same,GI50,SF-539,77.3 µM (inactive)
same,GI50,SK-MEL-5,2.07 µM (inactive)
same,GI50,RPMI-8226,0.65 µM (active)
same,GI50,BT-549,3.53 µM (inactive)
same,GI50,CCRF-CEM,0.787 µM (active)
same,GI50,786-0,4.91 µM (inactive)
same,GI50,M14,3.95 µM (inactive)
